For twelve molecules, T/C results are on record in PubChem BioAssay AID272 (DTP/NCI, 2004).

In this assay the test system is Lewis lung carcinoma i.m., BDF1 mice, T/C %. The experiment in a line: NCI In Vivo Anticancer Drug Screen. Data for tumor model Lewis Lung Carcinoma (intramuscular) in B6D2F1 (BDF1) mice. As to the method: The antitumor activity of compounds was measured in mice bearing transplantable tumors. Survival or tumor size were measured and the results are expressed as the measurement made in the treated group (T) divided by the measurement made in the vehicle treated control group (C). The tumor model used in this assay is Lewis Lung Carcinoma (intramuscular) in B6D2F1 (BDF1) mice

The mark [1] stands for this setting: endpoint: median survival time, dose: 100.0 mg/kg/injection, schedule: Q01DX011 (ip), vehicle: saline, higher = longer survival.
Setting [2] is: endpoint: median survival time, dose: 400.0 mg/kg/injection, schedule: Q01DX011 (ip), vehicle: saline, higher = longer survival.
The mark [3] stands for this setting: endpoint: mean tumor weight (est.), dose: 6.25 mg/kg/injection, schedule: Q01DX011 (ip), vehicle: saline with Tween-80, higher = larger tumour.
The mark [4] stands for this setting: endpoint: mean tumor weight (est.), dose: 12.5 mg/kg/injection, schedule: Q01DX011 (ip), vehicle: saline with Tween-80, higher = larger tumour.
The mark [5] stands for this setting: endpoint: mean tumor weight (est.), dose: 25.0 mg/kg/injection, schedule: Q01DX011 (ip), vehicle: saline with Tween-80, higher = larger tumour.
The mark [6] stands for this setting: endpoint: mean tumor weight (est.), dose: 50.0 mg/kg/injection, schedule: Q01DX011 (ip), vehicle: saline with Tween-80, higher = larger tumour.
Where [7] appears, read: endpoint: median survival time, dose: 6.25 mg/kg/injection, schedule: Q01DX011 (ip), vehicle: saline with Tween-80, higher = longer survival.
Where [8] appears, read: endpoint: median survival time, dose: 12.5 mg/kg/injection, schedule: Q01DX011 (ip), vehicle: saline with Tween-80, higher = longer survival.
Setting [9] is: endpoint: median survival time, dose: 25.0 mg/kg/injection, schedule: Q01DX011 (ip), vehicle: saline with Tween-80, higher = longer survival.

Inconclusive results are not listed.

For `NC1CONC1=O` (centres undefined), the T/C (endpoint: mean tumor weight (est.), dose: 50.0 mg/kg/injection, schedule: Q01DX011 (ip), vehicle: saline, higher = larger tumour) is 95 % of control; the T/C (endpoint: mean tumor weight (est.), dose: 100.0 mg/kg/injection, schedule: Q01DX011 (ip), vehicle: saline, higher = larger tumour) is 93 % of control; the T/C (endpoint: mean tumor weight (est.), dose: 200.0 mg/kg/injection, schedule: Q01DX011 (ip), vehicle: saline, higher = larger tumour) is 84 % of control; the T/C (endpoint: mean tumor weight (est.), dose: 400.0 mg/kg/injection, schedule: Q01DX011 (ip), vehicle: saline, higher = larger tumour) is 76 % of control; the T/C (endpoint: median survival time, dose: 50.0 mg/kg/injection, schedule: Q01DX011 (ip), vehicle: saline, higher = longer survival) is 94 % of control; the T/C under setting [1] was 106 % of control. The T/C was 106 % of control (endpoint: median survival time, dose: 200.0 mg/kg/injection, schedule: Q01DX011 (ip), vehicle: saline, higher = longer survival) and 124 % of control under setting [2].
As to `CS(=O)(=O)OCC(O)C(O)COS(C)(=O)=O` (centres undefined), the T/C by setting is: under setting [1], 100 % of control; under setting [2], 100 % of control.
As for `COC(=O)Nc1nc2ccc(C3(c4ccc(F)cc4)OCCO3)cc2[nH]1`, the T/C by setting is: (endpoint: median survival time, dose: 20.0 mg/kg/injection, schedule: Q01DX011 (oral), vehicle: other, higher = longer survival) 97 % of control; (endpoint: median survival time, dose: 40.0 mg/kg/injection, schedule: Q01DX011 (oral), vehicle: other, higher = longer survival) 97 % of control.
Consider `O=C1C(=O)c2ccccc2C(O)=C1CC=C(Cl)Cl`, for which the T/C by setting is: under setting [3], 93 % of control; under setting [4], 86 % of control; under setting [5], 61 % of control; under setting [6], 79 % of control; (endpoint: mean tumor weight, dose: 3.75 mg/kg/injection, schedule: Q01DX011 (oral), vehicle: saline, higher = larger tumour) 40 % of control; (endpoint: mean tumor weight, dose: 7.5 mg/kg/injection, schedule: Q01DX011 (ip), vehicle: saline, higher = larger tumour) 54 % of control. Moreover, the T/C by setting is: (endpoint: mean tumor weight, dose: 7.5 mg/kg/injection, schedule: Q01DX011 (oral), vehicle: saline, higher = larger tumour) 41 % of control; (endpoint: mean tumor weight, dose: 10.0 mg/kg/injection, schedule: Q01DX011 (ip), vehicle: saline, higher = larger tumour) 102 % of control; (endpoint: mean tumor weight, dose: 12.5 mg/kg/injection, schedule: Q01DX011 (ip), vehicle: other, higher = larger tumour) 71 % of control; (endpoint: mean tumor weight, dose: 15.0 mg/kg/injection, schedule: Q01DX011 (ip), vehicle: saline, higher = larger tumour) 43 % of control; (endpoint: mean tumor weight, dose: 20.0 mg/kg/injection, schedule: Q01DX011 (ip), vehicle: saline, higher = larger tumour) 91 % of control; (endpoint: mean tumor weight, dose: 25.0 mg/kg/injection, schedule: Q01DX011 (ip), vehicle: other, higher = larger tumour) 88 % of control. Besides, the T/C reads like this: (endpoint: mean tumor weight, dose: 30.0 mg/kg/injection, schedule: Q01DX011 (ip), vehicle: saline, higher = larger tumour) 30 % of control; (endpoint: mean tumor weight, dose: 40.0 mg/kg/injection, schedule: Q01DX011 (ip), vehicle: saline, higher = larger tumour) 82 % of control; (endpoint: mean tumor weight, dose: 50.0 mg/kg/injection, schedule: Q01DX011 (ip), vehicle: other, higher = larger tumour) 55 % of control; (endpoint: median survival time, dose: 3.75 mg/kg/injection, schedule: Q01DX011 (oral), vehicle: saline, higher = longer survival) 100 % of control; under setting [7], 89 % of control; (endpoint: median survival time, dose: 7.5 mg/kg/injection, schedule: Q01DX011 (ip), vehicle: saline, higher = longer survival) 111 % of control. Moreover, the T/C was 101 % of control (endpoint: median survival time, dose: 7.5 mg/kg/injection, schedule: Q01DX011 (oral), vehicle: saline, higher = longer survival); 93 % of control under setting [8]; 113 % of control (endpoint: median survival time, dose: 15.0 mg/kg/injection, schedule: Q01DX011 (ip), vehicle: saline, higher = longer survival); 87 % of control (endpoint: median survival time, dose: 20.0 mg/kg/injection, schedule: Q01DX011 (ip), vehicle: saline, higher = longer survival); 89 % of control under setting [9]; 108 % of control (endpoint: median survival time, dose: 30.0 mg/kg/injection, schedule: Q01DX011 (ip), vehicle: saline, higher = longer survival).
In the case of `O=[N+]([O-])c1cc(S(=O)(=O)OCC2CO2)ccc1Cl` (centres undefined), the T/C was 66 % of control under setting [3]; 70 % of control under setting [4]; 47 % of control under setting [5]; 100 % of control under setting [7]; 90 % of control under setting [8]; 101 % of control under setting [9].
Turning to `NCCCNCCSP(=O)(O)O`, the T/C (endpoint: median survival time, dose: 300.0 mg/kg/injection, schedule: Q01DX001 (ip), vehicle: saline, higher = longer survival) is 102 % of control and the T/C (endpoint: median survival time, dose: 500.0 mg/kg/injection, schedule: Q01DX001 (ip), vehicle: saline, higher = longer survival) was 92 % of control.
In the case of `Cc1cc(C)c(C(=O)CC(=O)c2cccnc2)c(C)c1`, the T/C was 69 % of control (endpoint: mean tumor weight (est.), dose: 8.75 mg/kg/injection, schedule: Q01DX011 (ip), vehicle: other, higher = larger tumour); 70 % of control (endpoint: mean tumor weight (est.), dose: 17.5 mg/kg/injection, schedule: Q01DX011 (ip), vehicle: other, higher = larger tumour); 93 % of control (endpoint: mean tumor weight (est.), dose: 35.0 mg/kg/injection, schedule: Q01DX011 (ip), vehicle: other, higher = larger tumour); 83 % of control (endpoint: mean tumor weight (est.), dose: 70.0 mg/kg/injection, schedule: Q01DX011 (ip), vehicle: other, higher = larger tumour); 92 % of control (endpoint: median survival time, dose: 8.75 mg/kg/injection, schedule: Q01DX011 (ip), vehicle: other, higher = longer survival); 106 % of control (endpoint: median survival time, dose: 17.5 mg/kg/injection, schedule: Q01DX011 (ip), vehicle: other, higher = longer survival). Also, the T/C is, setting by setting: (endpoint: median survival time, dose: 35.0 mg/kg/injection, schedule: Q01DX011 (ip), vehicle: other, higher = longer survival) 106 % of control; (endpoint: median survival time, dose: 70.0 mg/kg/injection, schedule: Q01DX011 (ip), vehicle: other, higher = longer survival) 94 % of control.
`CN(C)c1nc(N(C)C)nc(N(C)C)n1`: the T/C was 68 % of control under setting [5]; 97 % of control under setting [6]; 37 % of control (endpoint: mean tumor weight (est.), dose: 100.0 mg/kg/injection, schedule: Q01DX011 (ip), vehicle: saline with Tween-80, higher = larger tumour); 68 % of control (endpoint: mean tumor weight, dose: 62.5 mg/kg/injection, schedule: Q01DX011 (ip), vehicle: steriod suspending solution, higher = larger tumour); 63 % of control (endpoint: mean tumor weight, dose: 125.0 mg/kg/injection, schedule: Q01DX011 (ip), vehicle: steriod suspending solution, higher = larger tumour); 100 % of control (endpoint: median survival time, dose: 62.5 mg/kg/injection, schedule: Q01DX011 (ip), vehicle: steriod suspending solution, higher = longer survival). Moreover, where the note is “endpoint: median survival time, dose: 125.0 mg/kg/injection, schedule: Q01DX011 (ip), vehicle: steriod suspending solution, higher = longer survival”, the T/C is 104 % of control.
Consider `O=C[C@@H](CO)O[C@H](C=O)n1cnc2c(=O)[nH]cnc21`, for which the T/C was 53 % of control (endpoint: mean tumor weight, dose: 37.5 mg/kg/injection, schedule: Q01DX011 (ip), vehicle: saline, higher = larger tumour); 49 % of control (endpoint: mean tumor weight, dose: 39.0 mg/kg/injection, schedule: Q01DX011 (ip), vehicle: saline, higher = larger tumour); 74 % of control (endpoint: mean tumor weight, dose: 65.0 mg/kg/injection, schedule: Q01DX011 (ip), vehicle: saline, higher = larger tumour); 71 % of control (endpoint: mean tumor weight, dose: 75.0 mg/kg/injection, schedule: Q01DX011 (ip), vehicle: saline, higher = larger tumour); 60 % of control (endpoint: mean tumor weight, dose: 108.0 mg/kg/injection, schedule: Q01DX011 (ip), vehicle: saline, higher = larger tumour); 46 % of control (endpoint: mean tumor weight, dose: 150.0 mg/kg/injection, schedule: Q01DX011 (ip), vehicle: saline, higher = larger tumour). Also, the T/C is, setting by setting: (endpoint: median survival time, dose: 39.0 mg/kg/injection, schedule: Q01DX011 (ip), vehicle: saline, higher = longer survival) 115 % of control; (endpoint: median survival time, dose: 65.0 mg/kg/injection, schedule: Q01DX011 (ip), vehicle: saline, higher = longer survival) 115 % of control; (endpoint: median survival time, dose: 75.0 mg/kg/injection, schedule: Q01DX011 (ip), vehicle: saline, higher = longer survival) 113 % of control; (endpoint: median survival time, dose: 108.0 mg/kg/injection, schedule: Q01DX011 (ip), vehicle: saline, higher = longer survival) 103 % of control.
In the case of `O=[N+]([O-])c1cc([N+](=O)[O-])c(Nn2c3ccccc3c3ccccc32)c([N+](=O)[O-])c1`, the T/C runs as follows: under setting [8], 97 % of control; under setting [9], 102 % of control; (endpoint: median survival time, dose: 50.0 mg/kg/injection, schedule: Q01DX011 (ip), vehicle: saline with Tween-80, higher = longer survival) 108 % of control.
As to `O=C1NC(=O)C(F)(F)C(O)N1` (centres undefined), the T/C was 103 % of control (endpoint: mean tumor weight (est.), dose: 40.0 mg/kg/injection, schedule: Q01DX011 (ip), vehicle: saline, higher = larger tumour); 80 % of control (endpoint: mean tumor weight (est.), dose: 80.0 mg/kg/injection, schedule: Q01DX011 (ip), vehicle: saline, higher = larger tumour); 43 % of control (endpoint: mean tumor weight (est.), dose: 160.0 mg/kg/injection, schedule: Q01DX011 (ip), vehicle: saline, higher = larger tumour); 98 % of control (endpoint: median survival time, dose: 40.0 mg/kg/injection, schedule: Q01DX011 (ip), vehicle: saline, higher = longer survival); 103 % of control (endpoint: median survival time, dose: 80.0 mg/kg/injection, schedule: Q01DX011 (ip), vehicle: saline, higher = longer survival).
For `O=[As]O`, the T/C (endpoint: mean tumor weight, dose: 2.0 mg/kg/injection, schedule: Q01DX011 (ip), vehicle: saline, higher = larger tumour) was 64 % of control and the T/C (endpoint: median survival time, dose: 2.0 mg/kg/injection, schedule: Q01DX011 (ip), vehicle: saline, higher = longer survival) is 110 % of control.
